A short description of data set [1]: Cytotoxicity against human THP1 cells at 50 uM after 48 hrs by MTT assay. The format is functional. Conditions: THP-1, 48 h, read-out: GI.
A short description of data set [2]: Cytotoxicity against human THP1 cells after 48 hrs by MTT assay. As to conditions: THP-1, 48 h. The format is functional, cell-based.
Data set [3] is described as follows: Cytotoxicity against human HCT116 cells after 48 hrs by MTT assay. The format is functional, cell-based. Conditions: HCT-116, 48 h.
A short description of data set [4]: Cytotoxicity against human HCT116 cells at 50 uM after 48 hrs by MTT assay. The format is functional. Conditions: HCT-116, 48 h, read-out: GI.
In data set [5] the test system is A549. The data set can be described thus: Cytotoxicity against human A549 cells at 50 uM after 48 hrs by MTT assay. The format is functional. As to conditions: A549, 48 h, read-out: GI.
Data set [6] relates to A549. Briefly: Cytotoxicity against human A549 cells after 48 hrs by MTT assay. As to conditions: A549, 48 h. Format: functional, cell-based.
The subject of data set [7] is MCF7. Briefly: Cytotoxicity against human MCF7 cells after 48 hrs by MTT assay. The format is functional, cell-based. Conditions: MCF7, 48 h.
A short description of data set [8]: Cytotoxicity against human FR2 cells at 50 uM after 48 hrs by MTT assay. Conditions: read-out: GI. Format: cell-based.
A short description of data set [9]: Cytotoxicity against human FR2 cells after 48 hrs by MTT assay. The format is cell-based. Conditions: FR2, 48 h.
Data set [10] relates to MCF7. Briefly: Cytotoxicity against human MCF7 cells at 50 uM after 48 hrs by MTT assay. Format: functional. As to conditions: MCF7, 48 h, read-out: GI.
Data set [11] concerns HCT-116. The data set can be described thus: Induction of cell cycle arrest in human HCT116 cells assessed as accumulation at G2 phase at 20 uM after 48 hrs by propidium iodide staining-based flow cytometry (reference value: 32.43%). The format is functional.
A short description of data set [12]: Downregulation of Bcl2 expression in human HCT116 cells at 20 uM after 24 hrs by Western blotting method. Format: functional, cell-based. Conditions: HCT-116.
For data set [13], the system named is HCT-116. Briefly: Induction of cell cycle arrest in human HCT116 cells assessed as accumulation at G1 phase at 20 uM after 48 hrs by propidium iodide staining-based flow cytometry (reference value: 41.51%). Format: functional.
Data set [14] is described as follows: Induction of apoptosis in human HCT116 cells assessed as upregulation of caspase-9 expression at 20 uM after 24 hrs by Western blotting method. Format: functional, cell-based. Conditions: HCT-116.
The test system of data set [15] is HCT-116. The data set can be described thus: Induction of apoptosis in human HCT116 cells assessed as membrane blebbing at 10 to 20 uM after 24 hrs by acridine orange/ethidium bromide staining-based fluorescence microscopy. Format: functional, cell-based.
A short description of data set [16]: Induction of apoptosis in human HCT116 cells assessed as upregulation of caspase-3 expression at 20 uM after 24 hrs by Western blotting method. The format is functional, cell-based. As to conditions: HCT-116.
Data set [17] has as its system HCT-116. Briefly: Induction of apoptosis in human HCT116 cells assessed as pycnosis at 10 to 20 uM after 24 hrs by acridine orange/ethidium bromide staining-based fluorescence microscopy. The format is functional, cell-based.
Data set [18] in a line: Upregulation of Bax expression in human HCT116 cells at 20 uM after 24 hrs by Western blotting method. The format is functional, cell-based. As to conditions: HCT-116.
Data set [19] deals with HCT-116. Briefly: Induction of apoptosis in human HCT116 cells assessed as cell budding at 10 to 20 uM after 24 hrs by acridine orange/ethidium bromide staining-based fluorescence microscopy. Format: functional.
The subject of data set [20] is HCT-116. Briefly: Induction of apoptosis in human HCT116 cells at 20 uM after 24 hrs by Hoechst 33258 staining-based fluorescence microscopy. The format is functional, cell-based.
Data set [21] has as its system HCT-116. The data set can be described thus: Induction of apoptosis in human HCT116 cells at 20 uM after 24 hrs by JC-1 staining-based fluorescence microscopy. Format: functional, cell-based.

Activity calls are given as the source filed them. No cut-off for these calls is given here. Bounds are passed on as bounds.

As for `C[C@H]1[C@H](C)CC[C@]2(C(=O)O)CC[C@]3(C)C(=CC[C@@H]4[C@@]5(C)CCC(=O)C(C)(C)[C@@H]5CC[C@]43C)[C@H]12` [URSONIC ACID], the inhibition of growth at 50 µM in data set [1] was determined as 88%; in data set [4] it was 53%; with A549 [5], 78%; in the data set on MCF7 [10], 42%. Besides, the IC50 was 13 µM in data set [2]; 2.3 µM in [3]; 15 µM with A549 [6]; 56 µM with MCF7 [7]; 24 µM in [9]. In [8], the inhibition at 48 h, 50 µM was determined as 86%.
As for `COc1cc(OC)c(OC)cc1/C=C1\C[C@]2(C)[C@H]3CC=C4[C@@H]5[C@@H](C)[C@H](C)CC[C@]5(C(=O)O)CC[C@@]4(C)[C@]3(C)CC[C@H]2C(C)(C)C1=O`, the inhibition of growth at 50 µM is 80% in data set [1], 85% in data set [4], 60% with A549 [5] and 76% in the data set with MCF7 [10]. Further, the IC50 was found to be 2 µM in [2]; 12 µM in data set [3]; 9 µM in the data set on A549 [6]; 20 µM in the data set on MCF7 [7]; 40 µM in data set [9]. In [8], the inhibition at 48 h, 50 µM turned out to be 76%.
`C[C@H]1[C@H](C)CC[C@]2(C(=O)O)CC[C@]3(C)C(=CC[C@@H]4[C@@]5(C)C/C(=C\c6cc(O)ccc6O)C(=O)C(C)(C)[C@@H]5CC[C@]43C)[C@H]12`: the inhibition of growth at 50 µM in data set [1] came to 94%; in [4], 99%; with A549 [5] it was 93%; in the data set on MCF7 [10], 100%. For the same compound, the results for the Activity in the data set with HCT-116 [11] and with HCT-116 [13] were 11.65% and 65.58%, respectively. In addition, the IC50 in data set [2] was 0.9 µM; in [3], less than 0.1 µM; in the data set with A549 [6], 0.55 µM; in the data set on MCF7 [7] it was 5.5 µM; in data set [9], 0.8 µM. Also, the outcome (in data set [12]; in data set [14]; in the data set on HCT-116 [15]; in [16]; with HCT-116 [17]; in data set [18]) was Active. Besides, the result in the data set on HCT-116 [19], with HCT-116 [20] and with HCT-116 [21] was Active. Further, the inhibition at 48 h, 50 µM in data set [8] stood at 91%.
For `C[C@H]1[C@H](C)CC[C@]2(C(=O)O)CC[C@]3(C)C(=CC[C@@H]4[C@@]5(C)C/C(=C\c6ccccc6)C(=O)C(C)(C)[C@@H]5CC[C@]43C)[C@H]12`, the inhibition of growth at 50 µM in data set [1] turned out to be 90%; in data set [4], 95%; in the data set on A549 [5], 60%; in the data set on MCF7 [10], 98%. Besides, the IC50 in data set [2] was determined as 16 µM; in [3], 14 µM; in the data set on A549 [6] it was 18 µM; in the data set on MCF7 [7], 23 µM; in data set [9], 70 µM. Moreover, in data set [8], the inhibition at 48 h, 50 µM was determined as 90%.
Turning to `C[C@H]1[C@H](C)CC[C@]2(C(=O)O)CC[C@]3(C)C(=CC[C@@H]4[C@@]5(C)C/C(=C\c6ccc7ccccc7c6)C(=O)C(C)(C)[C@@H]5CC[C@]43C)[C@H]12`, the inhibition of growth at 50 µM in data set [1] came out at 98%; in [4] it was 89%; in the data set with A549 [5], 60%; in the data set with MCF7 [10], 90%. The IC50 is 5 µM in [2]; 0.53 µM in data set [3]; 16 µM in the data set with A549 [6]; 21 µM in the data set on MCF7 [7]; 40 µM in [9]. Besides, in [8], the inhibition at 48 h, 50 µM is 75%.
Consider `C[C@H]1[C@H](C)CC[C@]2(C(=O)O)CC[C@]3(C)C(=CC[C@@H]4[C@@]5(C)C/C(=C\C=C\c6ccccc6)C(=O)C(C)(C)[C@@H]5CC[C@]43C)[C@H]12`, for which the inhibition of growth at 50 µM stood at 93% in data set [1], 98% in [4], 89% in the data set with A549 [5] and 99% in the data set on MCF7 [10]. Also, the IC50 was found to be 16 µM in data set [2]; 2.1 µM in data set [3]; 0.65 µM with A549 [6]; 12 µM in the data set with MCF7 [7]; 38 µM in data set [9]. Also, the inhibition at 48 h, 50 µM in data set [8] stood at 80%.
Regarding `C[C@H]1[C@H](C)CC[C@]2(C(=O)O)CC[C@]3(C)C(=CC[C@@H]4[C@@]5(C)C/C(=C\c6ccc(Cl)cc6)C(=O)C(C)(C)[C@@H]5CC[C@]43C)[C@H]12`, the inhibition of growth at 50 µM (in [1]; in data set [4]; in the data set with A549 [5]; in the data set on MCF7 [10]) was 99% each time. In addition, the IC50 was determined as 12 µM in [2]; 15 µM in [3]; 2.9 µM in the data set on A549 [6]; 4.1 µM in the data set with MCF7 [7]; 69 µM in data set [9]. The inhibition at 48 h, 50 µM in data set [8] was determined as 99%.
